# According to US20230010299A1, “HETEROCYCLIC TRPML1 AGONISTS” (LIBRA THERAPEUTICS, INC., priority 2019, published 2023):
# pEC50: −log10 of the molar value.
# Biological target: T1, TRPML1 (Homo sapiens, UniProt Q9GZU1)
# T1 construct: expressed in transfected cells
# Experiment: Cellular TRPML1 assay (FLIPR TETRA, GCaMP6f calcium read-out)
# Assay type: cell-based
# Conditions: HEK T-REx/GCaMP6f/TRPML1 cells; Ca2+ response over 300 s, normalized to ML-SA1 50 μM; Ca2+ free or Optimem condition not given; read-out: Ec50 (Activity of TRPML1 agonists)
# Method: Buffers and reagents • PBS (D-PBS without calcium and magnesium; EuroClone) • Trypsin (Trypsin 0.05%, EDTA 0.02% in PBS; EuroClone) • DMSO (Sigma) • Ca^2+ free Tyrode's buffer: in-house solution (130 mM NaCl, 5 mM KCl, 1 mM MgCl2, 5 mM NaHCO3, 20 mM HEPES in water at pH 7.4; sterile filtered). • Opti-MEM (Gibco) • Agonist: ML-SA1 (Sigma); stock: 60 mM in DMSO, stored at −20° C. • Blocker: ML-SI3 (in house synthesis); stock: 20 mM in DMSO, stored at −20° C.
# The final clone for the TRPML1 assay is HEK T-REx/GCaMP6f/TRPML1.
# GCaMP6f is a genetically encoded calcium indicator that is stably expressed in this cell line and used as a fluorescent read-out.
# Experiments are performed in 384 MTP format. Cells are seeded at 15000 cells/well either in 25 μl/well of growth medium or in 20 μl/well of Optimem+0.5% FBS without selection antibiotics. Twenty-four hours later, cells are assayed for the response to various compounds using the Ca^2+ sensitive GCaMP6f protein stably expressed in the cells as readout.
# The experiment is performed in a 384-well format according to the following procedures for either Ca^2+ free or Optimem conditions: • Ca^2+ free condition (in absence of extracellular Ca^2+): • 24 h after seeding, pre-incubate the cells at room temperature for about 10′. • Then remove the culture medium and replace it with 20 μL of Ca^2+ free Tyrode's buffer. • Start the experiment at the FLIPR^TETRA by injecting 10 μL/w of 3× concentrated test compounds and controls in Ca^2+ free Tyrode's buffer. Monitor the kinetic response over a period of 300 seconds. • Final DMSO concentration: 0.5% • Optimem condition (in presence of extracellular Ca^2+): • 24 h after seeding, pre-incubate the cells at room temperature for about 10′. • Start the experiment at the FLIPR^TETRA by injecting 10 μL/w of 3× concentrated test compounds and controls in Ca^2+ free Tyrode's buffer. Monitor the kinetic response over a period of 300 seconds. • Final DMSO concentration: 0.5%
# Data from FLIPR^TETRA measurements are analyzed with the Genedata Screener® software.
# Stimulator controls (Col 2): injection of ML-SA1 EC100 (50 μM) in alternated wells positions
# Neutral controls (Col 2): injection of 0 mM Ca^2+ free Tyrode's buffer in alternated wells positions.
# Test wells (Col 3-22): test compounds dose response curve from either 100 μM with 1:2 dilution steps or from 50 μM with 1:3.16 dilution steps.
# T1 sequence (Q9GZU1 whole entry): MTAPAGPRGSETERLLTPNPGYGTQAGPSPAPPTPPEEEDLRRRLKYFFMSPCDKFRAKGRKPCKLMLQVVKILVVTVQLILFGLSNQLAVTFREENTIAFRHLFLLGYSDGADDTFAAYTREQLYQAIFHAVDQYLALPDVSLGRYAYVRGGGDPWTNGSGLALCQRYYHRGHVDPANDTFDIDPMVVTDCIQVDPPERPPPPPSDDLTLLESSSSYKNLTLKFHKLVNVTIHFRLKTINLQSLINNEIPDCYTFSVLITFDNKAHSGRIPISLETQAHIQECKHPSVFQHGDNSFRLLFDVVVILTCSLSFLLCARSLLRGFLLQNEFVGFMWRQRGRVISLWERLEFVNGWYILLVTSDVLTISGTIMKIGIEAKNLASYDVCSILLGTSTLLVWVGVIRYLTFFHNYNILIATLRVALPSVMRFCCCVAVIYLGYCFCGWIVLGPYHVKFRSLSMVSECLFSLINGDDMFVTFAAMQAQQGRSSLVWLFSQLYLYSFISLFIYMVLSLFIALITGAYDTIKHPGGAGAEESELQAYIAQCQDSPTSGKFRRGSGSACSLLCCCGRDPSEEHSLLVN
row,Compound,pEC50
1,"Cc1ccc(S(=O)(=O)Nc2ccccc2N2CCN(C(=O)OC(C)(C)C)CC2)c(C)c1 [Example 50, tert-butyl 4-(2-((2,4-dimethylphenyl)sulfonamido)phenyl)piperazine-1-carboxylate]",5.66
2,"Cc1ccccc1S(=O)(=O)Nc1ccccc1N1CCN(C(=O)OC(C)(C)C)CC1 [Example 47, tert-butyl 4-(2-((2-methylphenyl)sulfonamido)phenyl)piperazine-1-carboxylate]",5.28
3,"Cc1ccc(S(=O)(=O)Nc2ccccc2N2CCC(Oc3ccccn3)CC2)cn1 [Example 98, 6-methyl-N-(2-(4-(pyridin-2-yloxy)piperidin-1-yl)phenyl)pyridine-3-sulfonamide]",5.48
4,"CN1CCc2cc(S(=O)(=O)Nc3ccccc3N3CCN(C(=O)OC(C)(C)C)CC3)ccc21 [Example 72, tert-butyl 4-(2-((l-methylindoline)-5-sulfonamido)phenyl)piperazine-1-carboxylate]",5.52
5,"COC1CCCN(c2ccccc2NS(=O)(=O)c2ccc(S(=O)(=O)N(C)C)cc2)CC1 (single isomer, unassigned) [Example 41, N1-(2-(4-methoxyazepan-1-yl)phenyl)-N4,N4-dimethylbenzene-1,4-disulfonamide]",5.36
6,"CCc1ccc(S(=O)(=O)Nc2ccccc2N2CC3CCC2C3)s1 (stereo not shown) [Example 17, N-(2-{2-azabicyclo[2.2.1]heptan-2-yl}phenyl)-5-ethylthiophene-2-sulfonamide]",4.74
7,"Cc1ncsc1C(=O)N1CCN(c2ccccc2NS(=O)(=O)c2ccc(S(=O)(=O)N(C)C)cc2)CC1 [Example 80, N1,N1-dimethyl-N4-{2-[4-(4-methyl-1,3-thiazole-5-carbonyl)piperazin-1-yl]phenyl}benzene-1,4-disulfonamide]",4.72
8,"Cc1nc(C)c(S(=O)(=O)Nc2ccccc2N2CCN(C(=O)OC(C)(C)C)CC2)s1 [Example 56, tert-butyl 4-(2-((2,4-dimethylthiazole)-5-sulfonamido)phenyl)piperazine-1-carboxylate]",5.44
9,"CC(C)N(C(=O)c1ccc(S(C)(=O)=O)cc1)c1ccccc1N1CCC(Oc2cnccn2)CC1 [Example 103, N-isopropyl-4-(methylsulfonyl)-N-(2-(4-(pyrazin-2-yloxy)piperidin-1-yl)phenyl)benzamide]",4.83

# More lines, in order of rising pEC50, values ahead:
row,pEC50,Compound
1,4.04,"O=S(=O)(Nc1ccccc1N1CCCCC1)c1cc2ccccc2s1 [Example 1, N-[2-(piperidin-1-yl)phenyl]-1-benzothiophene-2-sulfonamide]"
2,4.19,"CN(C)S(=O)(=O)c1ccc(S(=O)(=O)Nc2ccccc2N2CCc3ccccc32)cc1 [Example 8, N4-[2-(2,3-dihydro-1H-indol-1-yl)phenyl]-N1,N1-dimethylbenzene-1,4-disulfonamide]"
3,4.71,"CCCN(C)C(=O)C1CCN(c2ccccc2NS(=O)(=O)c2ccc(S(=O)(=O)N(C)C)cc2)CC1 [Example 14, 1-(2-((4-(N,N-dimethylsulfamoyl)phenyl)sulfonamido)phenyl)-N-methyl-N-propylpiperidine-4-carboxamide]"
4,4.84,"CC(C)(C)c1ccc(S(=O)(=O)Nc2ccccc2N2CC3CCC2C3)s1 (stereo not shown) [Example 16, N-(2-{2-azabicyclo[2.2.1]heptan-2-yl}phenyl)-5-tert-butylthiophene-2-sulfonamide]"
5,5.14,"COC1CCCN(c2ccccc2NS(=O)(=O)c2ccc(S(=O)(=O)N(C)C)cc2)C1 (stereo not shown) [Example 36, N4-[2-(3-methoxypiperidin-1-yl)phenyl]-N1,N1-dimethylbenzene-1,4-disulfonamide]"
6,5.15,"CN(C)S(=O)(=O)c1ccc(S(=O)(=O)Nc2ccccc2N2CCCOCC2)cc1 [Example 43, N1-(2-(l,4-oxazepan-4-yl)phenyl)-N4,N4-dimethylbenzene-1,4-disulfonamide]"
7,5.42,"CC1Cc2cc(S(=O)(=O)Nc3ccccc3N3CCN(C(=O)OC(C)(C)C)CC3)ccc2O1 (single isomer, unassigned) [Example 94, tert-butyl 4-(2-((2-methyl-2,3-dihydrobenzofuran)-5-sulfonamido)phenyl)piperazine-1-carboxylate]"
